Results from ChEMBL document CHEMBL1201862, “PubChem BioAssay data set” (2004).
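Exposure lasted 48 hours, with cells grown in 96-well plates and compounds tested at five concentrations. GI50 is the concentration that inhibits growth by half.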 Activity calls are given as the source filed them. No stated cut-off is given here; in the data, active = GI50 up to about 1.1 µM and inactive = higher.

Experiments:
Test in all cases: growth of human tumour cells (NCI), 48 h
[1] = test system: 786-0
[2] = test system: A498
[3] = test system: A549
[4] = test system: ACHN
[5] = test system: CAKI-1
[6] = test system: CCRF-CEM
[7] = test system: COLO 205
[8] = test system: DLD-1
[9] = test system: DMS-114
[10] = test system: DMS-273
[11] = test system: EKVX
[12] = test system: HCC 2998
[13] = test system: HCT-116
[14] = test system: HCT-15
[15] = test system: HL-60
[16] = test system: HOP-62
[17] = test system: HOP-92
[18] = test system: IGROV-1
[19] = test system: K562
[20] = test system: KM-20L2
[21] = test system: KM12
[22] = test system: LOX IMVI
[23] = test system: LXFL 529
[24] = test system: M14
[25] = test system: M19-MEL
[26] = test system: MOLT-4
[27] = test system: NCI-H23
[28] = test system: NCI-H460
[29] = test system: OVCAR-3
[30] = test system: OVCAR-4
[31] = test system: OVCAR-8
[32] = test system: RPMI-8226
[33] = test system: RXF 393
[34] = test system: SF-268
[35] = test system: SF-295
[36] = test system: SF-539
[37] = test system: SK-MEL-28
[38] = test system: SK-MEL-2
[39] = test system: SK-MEL-5
[40] = test system: SK-OV-3
[41] = test system: SN12C
[42] = test system: SNB-19
[43] = test system: SNB-75
[44] = test system: SNB-78
[45] = test system: SR
[46] = test system: SW-620
[47] = test system: TK-10
[48] = test system: U-251
[49] = test system: UACC-257
[50] = test system: UACC-62
[51] = test system: UO-31
[52] = test system: XF498
[53] = test system: HT-29
[54] = test system: Malme-3M
[55] = test system: NCI-H522
[56] = test system: NCI-H226
[57] = test system: OVCAR-5

## c1ccc(SCCCC(Sc2ccccc2)Sc2ccccc2)cc1
[1]
  GI50: > 100 µM (inactive)
[2]
  GI50: > 100 µM (inactive)
[3]
  GI50: > 100 µM (inactive)
[4]
  GI50: > 100 µM (inactive)
[5]
  GI50: > 100 µM (inactive)
[6]
  GI50: > 100 µM (inactive)
[7]
  GI50: > 100 µM (inactive)
[8]
  GI50: > 100 µM (inactive)
[9]
  GI50: > 100 µM (inactive)
[10]
  GI50: > 100 µM (inactive)
[11]
  GI50: > 100 µM (inactive)
[12]
  GI50: > 100 µM (inactive)
[13]
  GI50: > 100 µM (inactive)
[14]
  GI50: > 100 µM
[15]
  GI50: > 100 µM (inactive)
[16]
  GI50: > 100 µM (inactive)
[17]
  GI50: 49.9 µM (inactive)
[18]
  GI50: > 100 µM (inactive)
[19]
  GI50: > 100 µM (inactive)
[20]
  GI50: > 100 µM (inactive)
[21]
  GI50: > 100 µM (inactive)
[22]
  GI50: > 100 µM (inactive)
[23]
  GI50: > 100 µM (inactive)
[24]
  GI50: > 100 µM (inactive)
[25]
  GI50: > 100 µM (inactive)
[26]
  GI50: > 100 µM (inactive)
[27]
  GI50: > 100 µM (inactive)
[28]
  GI50: > 100 µM (inactive)
[29]
  GI50: > 100 µM (inactive)
[30]
  GI50: > 100 µM (inactive)
[31]
  GI50: > 100 µM (inactive)
[32]
  GI50: > 100 µM (inactive)
[33]
  GI50: > 100 µM (inactive)
[34]
  GI50: > 100 µM (inactive)
[35]
  GI50: > 100 µM (inactive)
[36]
  GI50: > 100 µM (inactive)
[37]
  GI50: > 100 µM (inactive)
[38]
  GI50: > 100 µM (inactive)
[39]
  GI50: > 100 µM (inactive)
[40]
  GI50: > 100 µM (inactive)
[41]
  GI50: > 100 µM (inactive)
[42]
  GI50: > 100 µM (inactive)
[43]
  GI50: > 100 µM (inactive)
[44]
  GI50: > 100 µM (inactive)
[45]
  GI50: > 100 µM (inactive)
[46]
  GI50: > 100 µM (inactive)
[47]
  GI50: > 100 µM (inactive)
[48]
  GI50: > 100 µM (inactive)
[49]
  GI50: > 100 µM (inactive)
[50]
  GI50: > 100 µM (inactive)
[51]
  GI50: > 100 µM (inactive)
[52]
  GI50: > 100 µM (inactive)

## O=C1C[C@H]2CC3(CC[C@H]2CN1)OCCO3
[1]
  GI50: > 100 µM (inactive)
[2]
  GI50: > 100 µM (inactive)
[3]
  GI50: > 100 µM (inactive)
[5]
  GI50: > 100 µM (inactive)
[6]
  GI50: > 100 µM (inactive)
[7]
  GI50: > 100 µM (inactive)
[8]
  GI50: > 100 µM (inactive)
[10]
  GI50: > 100 µM (inactive)
[11]
  GI50: > 100 µM (inactive)
[12]
  GI50: > 100 µM (inactive)
[13]
  GI50: > 100 µM (inactive)
[14]
  GI50: > 100 µM
[15]
  GI50: > 100 µM (inactive)
[16]
  GI50: > 100 µM (inactive)
[17]
  GI50: > 100 µM (inactive)
[53]
  GI50: > 100 µM (inactive)
[18]
  GI50: > 100 µM (inactive)
[19]
  GI50: > 100 µM (inactive)
[21]
  GI50: > 100 µM (inactive)
[22]
  GI50: > 100 µM (inactive)
[23]
  GI50: > 100 µM (inactive)
[24]
  GI50: > 100 µM (inactive)
[25]
  GI50: > 100 µM (inactive)
[26]
  GI50: > 100 µM (inactive)
[54]
  GI50: > 100 µM (inactive)
[27]
  GI50: > 100 µM (inactive)
[28]
  GI50: > 100 µM (inactive)
[55]
  GI50: > 100 µM (inactive)
[29]
  GI50: > 100 µM (inactive)
[30]
  GI50: > 100 µM (inactive)
[31]
  GI50: > 100 µM (inactive)
[32]
  GI50: > 100 µM (inactive)
[33]
  GI50: > 100 µM (inactive)
[34]
  GI50: > 100 µM (inactive)
[35]
  GI50: > 100 µM (inactive)
[36]
  GI50: > 100 µM (inactive)
[37]
  GI50: > 100 µM (inactive)
[38]
  GI50: > 100 µM (inactive)
[39]
  GI50: > 100 µM (inactive)
[40]
  GI50: > 100 µM (inactive)
[41]
  GI50: > 100 µM (inactive)
[42]
  GI50: > 100 µM (inactive)
[43]
  GI50: > 100 µM (inactive)
[44]
  GI50: > 100 µM (inactive)
[46]
  GI50: > 100 µM (inactive)
[47]
  GI50: > 100 µM (inactive)
[48]
  GI50: > 100 µM (inactive)
[49]
  GI50: > 100 µM (inactive)
[50]
  GI50: > 100 µM (inactive)
[51]
  GI50: > 100 µM (inactive)
[52]
  GI50: > 100 µM (inactive)

## O=C(/C=N/O)Nc1cccc(Cl)c1I
[1]
  GI50: > 100 µM (inactive)
[2]
  GI50: 27.7 µM (inactive)
[3]
  GI50: 46 µM (inactive)
[4]
  GI50: 57.4 µM (inactive)
[5]
  GI50: 32.3 µM (inactive)
[6]
  GI50: 49.1 µM (inactive)
[7]
  GI50: 89.9 µM (inactive)
[8]
  GI50: 63.4 µM (inactive)
[9]
  GI50: 23.3 µM (inactive)
[10]
  GI50: > 100 µM (inactive)
[11]
  GI50: 8.83 µM (inactive)
[12]
  GI50: > 100 µM (inactive)
[13]
  GI50: 53.6 µM (inactive)
[14]
  GI50: 79.1 µM
[15]
  GI50: 34.4 µM (inactive)
[16]
  GI50: 83.4 µM (inactive)
[53]
  GI50: > 100 µM (inactive)
[18]
  GI50: 26.5 µM (inactive)
[19]
  GI50: 53.5 µM (inactive)
[20]
  GI50: > 100 µM (inactive)
[21]
  GI50: 65.6 µM (inactive)
[22]
  GI50: 96.8 µM (inactive)
[23]
  GI50: 25 µM (inactive)
[24]
  GI50: 47.2 µM (inactive)
[25]
  GI50: 80.7 µM (inactive)
[26]
  GI50: 42.3 µM (inactive)
[54]
  GI50: 40.6 µM (inactive)
[56]
  GI50: > 100 µM (inactive)
[27]
  GI50: 59.2 µM (inactive)
[28]
  GI50: > 100 µM (inactive)
[55]
  GI50: 26.1 µM (inactive)
[29]
  GI50: 30.1 µM (inactive)
[30]
  GI50: 28.9 µM (inactive)
[57]
  GI50: > 100 µM (inactive)
[31]
  GI50: 81.5 µM (inactive)
[32]
  GI50: 30.6 µM (inactive)
[33]
  GI50: 23.7 µM (inactive)
[34]
  GI50: 35.9 µM (inactive)
[35]
  GI50: 50.7 µM (inactive)
[37]
  GI50: > 100 µM (inactive)
[38]
  GI50: 24.9 µM (inactive)
[39]
  GI50: 40.8 µM (inactive)
[40]
  GI50: 28.5 µM (inactive)
[41]
  GI50: 47.8 µM (inactive)
[42]
  GI50: 55.7 µM (inactive)
[43]
  GI50: 12.8 µM (inactive)
[45]
  GI50: 30.7 µM (inactive)
[46]
  GI50: > 100 µM (inactive)
[47]
  GI50: 44.7 µM (inactive)
[48]
  GI50: 39.2 µM (inactive)
[49]
  GI50: 56.9 µM (inactive)
[50]
  GI50: 43.1 µM (inactive)
[51]
  GI50: 23.9 µM (inactive)
[52]
  GI50: 46.3 µM (inactive)
